Measured values: patent US7030108B2, “Combating Parkinson's disease-related movement disorder” (Reed Richter, priority 1999, dated 2006)

How the values were obtained:
Format in all cases: in vivo, human
[1] = test system: essential tremor (action tremor); assay: Treatment of patients with essential / action tremor without Parkinson's disease (case reports)
Procedure: A person with a 20-year history of upper extremity action tremor with a frequency of approximately 8–12 hz. The patient bad no signs or symptoms of Parkinson's disease. […] The patient was started on mirtazapine (Remeron) at a dosage of 30 mg at night.
A person with a lifelong history of action tremor and anxiety but no signs or symptoms of Parkinson's disease was treated. […] Although the tremor always improved with a decrease in the anxiety (using SSRIs and benzodiazepines) the tremor persisted at an unsatisfactory level of severity.
In March, 1998, the patient began medication with a dosage of 15 mg of mirtazapine (Remeron) at night, then on their own volition, increased the administration of the same dose of mirtazapine to twice a day (for a total dose of 30 mg).
Thus, in the patient group involved in the study of Examples 1–6, a total of fifteen individuals was treated with mirtazapine, and of such population, twelve of the patients responded well to treatment with substantial tremor reduction. Of such total of fifteen patients, eight patients had essential tremor, and five of the eight responded. […] Three patients had levodopa-induced dyskinesias and all three responded.

[2] = test system: Parkinsonian tremor (resting and action); assay: Mirtazapine treatment of patients with Parkinsonian tremor (case reports)
Procedure: A patient with mild Parkinson's Disease for 4 years experienced recurrent tremor that interfered with their ability to hold and deal cards while playing bridge. […] The patient was administered mirtazapine (Remeron®, Organon) at a dosage of 30 mg per day, taken at night for concomitant depression. […] A person with a nine-year history of Parkinson's Disease characterized by bradykinesia and marked right upper extremity resting tremor was treated. […] In May 1998, they were started on mirtazapine (Remeron) at a dosage of 30 mg at night. […] No other medication had been changed.

[3] = test system: levodopa-induced dyskinesias; assay: Mirtazapine treatment of Parkinson's Disease patients with levodopa/dopamine-induced dyskinesias (case reports)
Procedure: A person with a 15 year history of Parkinson's Disease was treated. […] In August, 1997, the patient was started on mirtazapine (Remeron) at a dosage of 3 mg at night to aid in sleep. […] Throughout the regimen of treatment, the dose of Sinemet remained stable. […] In May 1998, they were started on mirtazapine (Remeron) at a dosage of 30 mg at night. […] No other medication had been changed.

sedation = assay: Sedation / drowsiness side effect in treated patients
Procedure: Two months later, the patient discontinued the administration of mirtazapine because they were oversleeping. Such oversleeping behavior was not believed to relate to the administration of mirtazapine, however. The patient in fact stopped and restarted the mirtazapine multiple times.
A person with a 15 year history of Parkinson's Disease was treated. […] In August, 1997, the patient was started on mirtazapine (Remeron) at a dosage of 3 mg at night to aid in sleep. The next morning the patient's spouse telephoned excitedly to say that the spouse had only shaken for 15 minutes. This positive development continued making their “on” time more functional.
In almost all cases, the improvement in the tremor behavior came literally overnight, that is, after an initial 30 mg dose taken in the evening before retiring. […] Patients were aware of an improvement immediately. During neurological exam, patients described the types of activities that they could perform before and after administration of mirtazapine (e.g., dealing cards, feeding oneself without spilling, being able to return to exercise classes as a consequence of the improvement experienced, etc.).

tremor = assay: Patient group of Examples 1-6 treated for tremor / movement disorder (all types)
[4] = Example 3: person, 30 mg at night, no other medication changed
[5] = Example 3, mirtazapine restarted
[6] = Example 3, several months later, mirtazapine stopped
[7] = Example 5, 15 mg twice a day (total 30 mg)

## CC(C)NCC(O)COc1cccc2ccccc12 (stereo not shown) [propranolol]
[1]; Example 5 patient, before mirtazapine
  response of action tremor: seemed to respond to propranolol initially

## CN1CCN2c3ncccc3Cc3ccccc3[C@H]2C1 (racemic) [mirtazapine, 1,2,3,4,10,14b-hexahydro-2-methyl-pyrazino [2,1-a]pyrido [2,3-c]benzazepine]
[2]; Example 1: person, mild Parkinson's Disease, 30 mg per day at night, on Sinemet, within days of initial administration
  patient-reported effect on resting and action tremor (holding cards): they could hold their cards without embarrassment
[2]; Example 1, mirtazapine reinitiated, Sinemet dose unchanged
  tremor upon reinitiated administration: again experienced resolution of the tremors
[2]; Example 1, mirtazapine stopped, Sinemet dose unchanged
  tremor upon cessation of medication: the tremor (resting and action) returned
[2]; [4]
  patient-reported change in Parkinsonian tremor: rapid improvement
[2]; [5]
  tremor upon restarting medication: both movement disorders again responded
[2]; [6]
  tremor after stopping medication: return of the tremor
[2]; Examples 1-6, of four patients (fourth not yet returned for follow-up)
  Parkinsonian resting tremor patients who responded: three
[3]; Example 2: person, violent dyskinesias, 3 mg at night, reported the next morning
  time the patient had shaken: 15 min
[3]; Example 2, six months later, Sinemet dose stable
  dopamine-induced dyskinesias after a new dopa agonist (ropirinole) was added: no increase in dopamine-induced dyskinesias
[3]; [4]
  patient-reported change in dopamine-induced dyskinesias: rapid improvement
[3]; [5]
  dyskinesia upon restarting medication: both movement disorders again responded
[3]; [6]
  dyskinesia after stopping medication: return of the tremor and dyskinesia
[3]; Examples 1-6, of three patients
  levodopa-induced dyskinesia patients who responded: three
[1]; Example 4: person, 20-year upper extremity action tremor, 30 mg at night
  postural and kinetic tremors on physical exam: greatly reduced
[1]; Example 5: person, action tremor and anxiety, 15 mg twice a day (total 30 mg)
  patient-reported change in action tremor: improvement in the tremor especially when eating or drinking
[1]; [7]
  clinical exam: improved marginally
  handwriting: remained a problem
[1]; Examples 1-6, of eight patients with essential tremor
  essential tremor patients who responded: five
sedation; Example 1, patient currently remaining on mirtazapine
  sedation side effect: without experiencing any sedation side effect
sedation; Example 2, 3 mg at night
  drowsiness during the day: never reported that they were drowsy during the day
sedation; patients of the above-referenced examples
  sedation: sedation did not occur
tremor; Example 6, of ten additional patients
  patients responding favorably with marked attenuation of tremor activity: seven
tremor; Examples 1-6, of a total of fifteen individuals
  patients responding well with substantial tremor reduction: twelve
tremor; in almost all cases, after an initial 30 mg dose taken in the evening
  onset of improvement in tremor behavior: overnight
